The values below come from US20230226135A9, “ACETYLCHOLINE MODULATION OF IMMUNE FUNCTION” (BCell Solutions, Inc., priority 2019, published 2023).

Series [1] has as its system splenic B cells. Description: CFA-sensitized mice treated with Peptide with or without MLA, FACS of splenic B cells. In kind it is in vivo. The protocol: SUMMARY: A study was conducted to evaluate a potential alpha7 nAChR anti-inflammatory mechanism of the MKR-4 peptide, using the alpha7 nAChR antagonist methyllycaconitine (MLA). After enrollment, animals in Groups 2-4 were sensitized ID at the base of the tail with 0.1 mL FCA on Day 1. On Days 2, 3, 5 & 7 Groups were then dosed intraperitoneally (IP) with either: peptide and MLA in combination (2 mg/kg and 6 mg/kg, respectively); peptide (2 mg/kg) and MLA vehicle (saline) in combination; or peptide vehicle (saline) and MLA vehicle (saline). Animals were dosed once on Study Day 2 (MLA or MLA vehicle), and Days 3, 5 & 7 (Peptide or Peptide vehicle, MLA or MLA vehicle) as described in Table 2 below. Body weights were recorded on Study Days 0 & 8. Mice were euthanized for necropsy on Study Day 8, and serum and whole spleens were collected from all animals and sent to the sponsor for internal FACS analysis. Toxicity and Peptide mechanistic evaluation was based on absolute body weight change, spleen weights and sponsor FACS analysis (not included in report).
Antibodies and Flow Cytometry. Single cell suspensions were made of tissues or cells harvested from culture and stained with the following monoclonal antibodies: a monoclonal antibody directed against mouse alpha 7 nicotinic acetylcholine receptor (alpha 7 nAChR) (Santa Cruz Biotechnology); anti-mouse MHC Class II (M5114), and anti-mouse CLIP 15G4, Santa Cruz. Following staining, cells were analyzed comparing each level of staining to the appropriate isotype control on a Beckman Coulter Cytoflex benchtop flow cytometer. Data was analyzed using FlowJo software (Tree Star Inc.).
Experimental Design: On Study Day 0, mice were weighed and randomized by body weight into treatment groups. Following randomization, on Study Day 1, Groups 2-4 were sensitized ID at the base of the tail with 0.1 mL of FCA. When MLA and Peptide (FRIMAVLAS (SEQ ID NO: 389))—or their vehicles—were dosed on the same day, the MLA antagonist or vehicle was dosed 1 hour before the Peptide or its vehicle.
On Study Day 8, mice were anesthetized with Isoflurane (VetOne, Cat #502017) and bled to exsanguination followed by cervical dislocation for necropsy and tissue collection.

Series [2] can be described thus: Dosing formulation storage and stability. In kind it is physicochemical. The settings on record: 0.6 mg/mL in saline, frozen at -20 C. As to the method: Test Article Formulation Instructions & Calculations: Peptide dosing solution (0.2 mg/mL) was made fresh daily within 1 hour of use by diluting 0.09 mL of 5 mg/mL DMSO stock into 2.11 mL sterile saline. DMSO stock was kept at 4 C, then refrozen (to avoid repeated freeze-thaw cycles). Still, stock was relatively “solid” even at 4 C.
MLA antagonist dosing solution (0.6 mg/mL) was made on Day 2 by diluting the entire 5 mg in the sealed vial with 8.3 mL of sterile saline and aliquoting out ˜1.1 mL in each of seven 2 mL cryovials and freezing at −20 C. Four vials were used in the experiment, each thawed within 1 hour of use. Three vials remain frozen.
Dosing Formulations and Vehicle Storage & Stability: Saline vehicle is stable at 4 C for months. Peptide dosing solutions were made up and used fresh daily. […] MLA frozen “stock” solutions were stable for up to 1 month.

The subject of series [3] is CD8+ T cells. Description: CAP-induced expansion of CD8+ T cells with or without α7nAChR antagonist. In kind it is in vivo. Particulars: with CAP.
Series [4] relates to CLIP+ B cells. Description: CFA-induced arthritis model, CAP depletion of B cells with or without α7nAChR antagonist. The series is classed as in vivo, mice. The settings on record: co-treated with CAP, CFA model. The protocol:
FIGS. 11A-11B. […] In this study, CAP was administered at 3 days after CFA, then once daily every 3 days, until day 10 after CFA.
The next series of experiments are focused on the effects of CAP on splenic immune cells. […] As part of this experiment, the mice were co-treated with CAP and the alpha-7 nicotinic acetylcholine receptor (α7nAChR) antagonist, methyllycaconitine (MCA).

Series [5] concerns splenic B cells. Description: alpha 7 nAChR expression on splenic B cells after TLR 9 agonist CpG (flow cytometry). In kind it is cell-based, mouse. Particulars: after CpG treatment. As to the method:
Cell Culture. Mice were sacrificed and spleens were removed. The tissues were dissociated, from which single cell suspensions were made by passing the spleens through 40 μm cell strainers. Red blood cells were lysed using ACK Buffer (Sigma, Inc). Cells were then cultured with TLR ligands at the designated concentrations at 1.010^6 cells/mL in 6 well plates. Cells were grown in RPMI 1640 (Invitrogen) supplemented with 5% fetal bovine serum (Invitrogen) in a humidified 5% CO2 incubator at 37° C. for the designated time period.
Isolation of Splenic Cells. Splenocytes were isolated from 8 week old C57BL/6J mice. Following sacrifice, spleens were removed and splenocytes isolated as above. Cells were then resuspended in complete RPMI and were cultured with the TLR ligands at the designated concentrations at 10^6 cells/mL in 6 well plates. […]
Antibodies and Flow Cytometry. […] Following staining, cells were analyzed comparing each level of staining to the appropriate isotype control on a Beckman Coulter Cytoflex benchtop flow cytometer. Data was analyzed using FlowJo software (Tree Star Inc.).
In FIG. 1A the X-axis represents fluorescence intensity of MHC class II expression on untreated splenic B cells from a C57BL6 mouse. […] The X axis reflects the relative fluorescence intensity before (green histogram) and after treatment with the TLR 9 agonist CpG (blue histogram).
(Flow cytometry measures light scatter and fluorescence of single cells or particles in a stream.)

Series [6] has as its system blood brain barrier (BBB). The series is described as follows: Intravital microscopy of BBB permeability and lymphocyte adhering/rolling in pial venules. In kind it is in vivo, C57 BL/6J mice. The settings on record: P3C i.p., 24 hours. An excerpt:
Whether intranasal infection with Streptococcus pyogenes would induce blood-brain barrier permeability in C57 BL/6J mice by a TLR-dependent mechanism was examined. Immediately following craniotomy, mice were placed under an intravital microscope to study vascular permeability and leukocytes. Permeability of cerebral blood vessels was observed using FITC-dextran fluorescent dye and, tracing of leukocytes is observed by labeling such cells with Rhodamine-6G. Intranasal infection with Streptococcus pyogenes (gram positive) increased BBB permeability (FIG. 4) and the number of adherent or rolling lymphocytes (FIG. 4) within 24 hours post-infection, compared to saline treated controls.
Methods: To test the hypothesis that intranasal infection may increase BBB permeability, we exposed mice to GAS via intranasal infection with Streptococcus pyogenes (GAS). We assessed BBB permeability using intravital microscopy, and we characterized the immune response to GAS using flow cytometric analysis of nasal associated lymphoid tissue (NALT), spleen, and brain.
Intranasal infection: Isoflurane gas was employed to briefly anesthetize mice (1-2 minutes). Once anesthetized, 7.5 uL of streptococcal bacterial suspension (OD600=0.5-0.6) was placed on each nares (outer nostril) of mouse. Control mice received intranasal inoculation with vehicle (PBS). The droplets were inhaled into nasal sinuses. This small volume avoids inoculation of the lungs, but reproducibly results in colonization of nasal-associated lymphoid tissue (NALT, Park 2003; Wang 2010).
Intraperitoneal injection: The TLR 1/2 agonist, Pam-3-Cys (25 ug/mouse; Pam3CSK4, InvivoGen, San Diego Calif.) was intraperitoneally (right side) injected into mice 24 hours before intravital microscopy. P3C causes immune cell activation and polycolonal expansion of B-lymphocytes by Toll-Like receptor ligation (Newell 2010). Control mice received equal volume of vehicle (PBS) intraperitoneally.
MHC class II-targeted proprietary peptide (TPP, Elim Biopharmaceuticals Inc., Hayward Calif.; also see Newell 2010) was administered intraperitoneally (5 ug/mouse, left side), sometimes in conjunction with P3C (right side). TPP was dissolved in DMSO for a final concentration of 2.5% DMSO in PBS. Control mice received vehicle (2.5% DMSO in PBS) intraperitoneally.
Preparation of Mice: Mice were anesthetized with an (i.p.) injection of 50% urethane (Sigma-Aldrich, U2500) in PBS ([…]) and maintained on heating pad. Anesthetic plane was assessed throughout preparation and experiments, by response to toe pinch. If needed, urethane supplement was given at 10% of original dose volume. To prepare mice tails for intravenous (i.v.) dye injection we maintained anesthetized mice on a heating pad for 10-15 minutes, and then briskly wiped tails (toward tail-end) with 70% ethanol wipes to remove scales/hair and increase vasodilation. Immediately following tail wiping, Fluorescein dextran 10 kDa (10 mg/mL, Sigma-Aldrich, FD10S) was administered (2 uL/g mouse) via right lateral tail vein and, Rhodamine 6G (0.2 mg/mL, Sigma-Aldrich, 83697) was administered (1.6 uL/g mouse) via left lateral tail vein. When needed, tail was wiped multiple times to ensure clear visualization of tail veins. Following successful (i.v.) injection of dyes, mice underwent craniotomy.
Craniotomy: A craniotomy (removal of a small area of skull) was performed to expose the cerebrum and allow imaging of cerebral microvasculature (specifically pial vessels of pia mater). First, an incision across the midline of the scalp was made to expose the right parietal bone. The skull was then carefully marked with a waterproof marker, designating the area, 1 mm posterior from the Bregma and 4 mm lateral from the midline, to be removed (craniotomy diameter: 2.5 mm). Next, the craniotomy was performed with a drill ensuring the dura mater was not cut. […]

Turning to `CCN1C[C@]2(COC(=O)c3ccccc3N3C(=O)C[C@H](C)C3=O)CC[C@H](OC)[C@@]34[C@@H]5C[C@H]6[C@H](OC)[C@@H]5[C@](O)(C[C@@H]6OC)[C@@](O)([C@@H](OC)[C@H]23)[C@@H]14` [MLA, methyllycaconitine, reference compound], the “effect of MLA on Peptide induced reduction in CLIP+ B cells” value in series [1] (CFA treated mice, MLA 6 mg/kg IP 1 hour before Peptide) was “reversed”. For the same compound, in series [1] (CFA treated, Peptide treated (2 mg/kg) and treated with MLA (6 mg/kg IP)), the “percentage of splenic B cells” value is 44.8%. Further, in series [2], the “stability of frozen stock solutions” value is on record as “up to 1 month”. The “effect of α7nAChR antagonist on CAP-induced CD8+ T cell expansion” value in series [3] is given as “reversed”; in series [3] (listed as MCA) it was “blocked”. The “effect of α7nAChR antagonist on CAP-induced decrease in B cell expansion” value is reported as “reversed” in series [4] and “prevented” in series [4] (listed as MCA).

In the case of 5′-tcgtcgttttgtcgttttgtcgtt-3′ [CpG], the “relative level of expression of nAChR per cell” value in series [5] was “increases”. Moreover, the “total splenocytes that express alpha 7 nAChR” value in series [5] (untreated 9%) is reported as 37.6%.

As to Pam-3-Cys [P3C, reference compound], the “largest observed diameter of adherent lymphocytes” value in series [6] is reported as 15 um. For the same compound, the “number of rolling lymphocytes” value in series [6] (vs control, p<0.01) is “significantly increased”. Further, the “number of adherent lymphocytes” value in series [6] (vs control, p<0.05) was “significantly increased”. Besides, the “average diameter of adherent lymphocytes” value in series [6] (control 5 um) amounted to 10 um.
